# Like-named read-outs stand apart in the source and are kept apart here.
# What was measured:
# EGFR [1] = conditions: ref [8] Li et al., cited from earlier work
# EGFR [2] = conditions: cited from earlier work
# [3] = tested on: A431 subcutaneous xenografts; test: Treatment of subcutaneous A431 xenografts in nude mice; format: in vivo, human; conditions: EGFR over-expressing cancers
# EGFR [4] = target: EGFR (Homo sapiens, UniProt P00533); test: Displacement of bound [^125I]-EGF in A431 cells; format: binding
# EGFR expressing cells = conditions: in vitro and in vivo, cited from earlier work
substance,measurement,setting,value
YHWYGYTPQNVI [GE11],affinity to the EGFR (in words),EGFR [1]; as a free ligand,high affinity
same,affinity to the EGFR,EGFR [1]; free ligand,~ 22 nM
same,EGFR activation,"EGFR [2]; as previously shown by us, ref [9],[10]",does not activate the receptor
same,EGFR activation,EGFR [2]; ref [8],does not activate the EGFR
same,EGFR activation,"EGFR [2]; ref [9],[10]",without EGFR activation
"EGF: Recombinant human EGF (hEGF, Peprotech Asia)",EGFR activation upon binding,EGFR [2]; ref [20],activates the kinase moiety of the receptor
Polyethyleneimine-polyetheleneglycol-EGF [PP-EGF],in vitro and in vivo efficacy of both vectors in PolyIC treatment,[3],in vitro and in vivo efficacies of both vectors are comparable
same,enhancement of potency by complexation with PolyIC,"EGFR [4]; [^125I]-EGF displacement, PolyIC complex vs uncomplexed conjugate",approximately 10 fold
Polyethyleneimine-polyetheleneglycol-GE11 [PPGE11],in vitro and in vivo efficacy of both vectors in PolyIC treatment,[3],in vitro and in vivo efficacies of both vectors are comparable
same,EGFR-binding affinity/inhibitory potency compared to GE11,EGFR [4]; vs free GE11,much more potent EGFR binder as compared to GE11
same,gene delivery into EGFR expressing cells,"EGFR expressing cells; ref [9],[10],[16]",effective and specific gene delivery into EGFR expressing cells
same,targeting of EGFR over-expressing tumors,"EGFR expressing cells; ref [9],[10]",enabled the targeting of EGFR over-expressing tumors in vitro and in vivo

# Reference: publication PMC3711802 (IUBMB life, 2012)
